Experimental data reported in ChEMBL document CHEMBL1148548, “New 7,8-ethylenedioxy-2,3-benzodiazepines as noncompetitive AMPA receptor antagonists” (Bioorg Med Chem Lett, 2006).

Assays:
Mus musculus [1] = experiment: Effect on locomotion in mice assessed by rotarod test at 3.3-200 umol/kg, ip; assay type: functional
Mus musculus [2] = experiment: Protective index [PI = TD50/ED50 (from clonic phase of the audiogenic seizures)] in mice at 3.3-200 umol/kg, ip; assay type: functional
Mus musculus [3] = experiment: Effect on tonic phase of audiogenic seizures in DBA/2 mice at 3.3-200 umol/kg, ip; assay type: functional; conditions: DBA/2, ip
Mus musculus [4] = experiment: Effect on clonic phase of audiogenic seizures in DBA/2 mice at 3.3-200 umol/kg, ip; assay type: functional; conditions: DBA/2, ip
[5] = biological target: T1, Glutamate receptor ionotropic, AMPA (Rattus norvegicus, UniProt P19490+P19491+P19492+P19493); experiment: Ability to inhibit kainate-induced increase of calcium in rat cerebellar granule cells expressing AMPA receptor; assay type: functional
[6] = biological target: T1, Glutamate receptor ionotropic, AMPA; experiment: Displacement of [3H]CP-526427 from AMPA receptor in rat forebrain membranes; assay type: cell membranes, Membrane
[7] = biological target: Glutamate receptor ionotropic, kainate 1 (Rattus norvegicus, UniProt P22756); experiment: Ability to inhibit domoic acid-induced increase of calcium in rat HEK293 cells expressing GluR5; assay type: functional, cell-based
Sequence of Glutamate receptor ionotropic, kainate 1 (P22756 whole entry): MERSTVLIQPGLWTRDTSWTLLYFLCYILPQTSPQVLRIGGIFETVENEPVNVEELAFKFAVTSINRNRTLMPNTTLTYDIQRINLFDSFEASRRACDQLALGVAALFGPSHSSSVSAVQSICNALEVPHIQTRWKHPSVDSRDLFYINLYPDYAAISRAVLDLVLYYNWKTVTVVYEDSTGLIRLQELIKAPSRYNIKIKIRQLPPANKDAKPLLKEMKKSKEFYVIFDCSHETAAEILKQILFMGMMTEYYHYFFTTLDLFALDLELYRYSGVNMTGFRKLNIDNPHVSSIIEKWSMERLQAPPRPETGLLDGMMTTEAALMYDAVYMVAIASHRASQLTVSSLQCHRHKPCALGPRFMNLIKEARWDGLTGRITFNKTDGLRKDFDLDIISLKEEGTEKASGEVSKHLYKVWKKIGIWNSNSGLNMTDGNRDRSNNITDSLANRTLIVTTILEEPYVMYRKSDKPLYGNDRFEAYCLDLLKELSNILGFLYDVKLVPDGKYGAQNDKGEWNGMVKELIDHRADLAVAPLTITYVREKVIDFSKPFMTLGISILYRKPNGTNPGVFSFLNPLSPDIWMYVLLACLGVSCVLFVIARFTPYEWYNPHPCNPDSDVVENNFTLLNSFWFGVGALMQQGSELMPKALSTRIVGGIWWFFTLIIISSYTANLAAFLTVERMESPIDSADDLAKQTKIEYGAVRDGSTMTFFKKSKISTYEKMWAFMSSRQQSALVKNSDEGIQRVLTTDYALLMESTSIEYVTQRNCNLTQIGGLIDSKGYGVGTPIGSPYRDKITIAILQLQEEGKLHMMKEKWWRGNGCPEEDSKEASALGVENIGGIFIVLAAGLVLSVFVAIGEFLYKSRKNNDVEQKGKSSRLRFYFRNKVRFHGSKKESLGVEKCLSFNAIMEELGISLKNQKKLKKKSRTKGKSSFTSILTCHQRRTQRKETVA

| IC50 [5] | IC50 [6] | IC50 [7] | SMILES | TD50 (Mus musculus [1]) | Ratio TD50/ED50 (Mus musculus [2]) | ED50 (Mus musculus [3]) | ED50 (Mus musculus [4]) |
| --- | --- | --- | --- | --- | --- | --- | --- |
| 5.4 µM |  |  | CNC(=O)N1N=C(c2ccc(N)cc2)c2cc3c(cc2CC1=O)OCCO3 | 96.4 µmol/kg | 2.1 | 32.1 µmol/kg | 45.5 µmol/kg |
|  | 1.8 µM |  | Cc1cc(C2=NNC(=O)Cc3cc4c(cc32)OCCO4)ccc1N | 115 µmol/kg | 2.4 | 24.6 µmol/kg | 48.2 µmol/kg |
|  | > 20 µM |  | Nc1ccc(C2=NNC(=O)Cc3cc4c(cc32)OCCO4)c(Cl)c1 |  |  | > 100 µmol/kg | > 100 µmol/kg |
| 12 µM |  |  | Nc1ccc(C2=NNC(=O)Cc3cc4c(cc32)OCO4)cc1 |  | 4.5 |  |  |
| 11 µM | 12 µM |  | CCNC(=O)N1N=C(c2ccc(N)cc2)c2cc3c(cc2CC1=O)OCO3 |  | 3.8 |  |  |
|  | 2 µM |  | Nc1ccc(C2=NNC(=O)Cc3cc4c(cc32)OCCO4)cc1Cl | 99.1 µmol/kg | 1.4 | 27.2 µmol/kg | 70.8 µmol/kg |
| 2.9 µM |  | > 10 µM | Nc1ccc(C2=NNC(=O)Cc3cc4c(cc32)OCCO4)cc1 | 102 µmol/kg | 1.7 | 44.8 µmol/kg | 61.3 µmol/kg |
|  | 9.3 µM |  | CCNC(=O)N1N=C(c2ccc(N)cc2)c2cc3c(cc2CC1=O)OCCO3 | 95.3 µmol/kg | 2 | 41.7 µmol/kg | 48.1 µmol/kg |
|  |  |  | CNC(=O)N1N=C(c2ccc(N)cc2)c2cc3c(cc2CC1=O)OCO3 |  | 3.9 |  |  |
|  |  |  | CC1=NN=C(c2ccc(N)cc2)c2cc3c(cc2C1)OCO3 [GYKI-52466] |  | 2.1 |  |  |
